Results reported in patent US10626144B2, “Peptide derivatives and uses thereof” (Nosopharm, priority 2014, dated 2020).
Numbered stars: 1 amine (or outer) side, 2 acyl side, 3 side chain; on linkers, the order of the positions; unused ones are H or OH. Square brackets hold non-standard residues; d marks the D form. Peptide text beside a SMILES is read from it. * marks the point of attachment. Phe(4-CONH2) = NC(=O)c1ccc(C[C@H](N)C(=O)O)cc1; Phe(2-CF3) = N[C@@H](Cc1ccccc1C(F)(F)F)C(=O)O; Pro(trans-4-F) = O=C(O)[C@@H]1C[C@@H](F)CN1; Abu(4,4,4-F3) = N[C@@H](CC(F)(F)F)C(=O)O; Phe(3-OMe) = COc1cccc(C[C@H](N)C(=O)O)c1; Phe(3-F) = N[C@@H](Cc1cccc(F)c1)C(=O)O; Pro(4R-NH2) = N[C@H]1CN[C@H](C(=O)O)C1; Dab(3S-OH) = NC[C@H](O)[C@H](N)C(=O)O; Met(O2) = CS(=O)(=O)CC[C@H](N)C(=O)O; Ethylenediamine = C(CN[*:2])N[*:1]; ΔZArg = N=C(N)NCC/C=C(\N)C(=O)O; Lys(Me) = CNCCCC[C@H](N)C(=O)O; dOrn = NCCC[C@@H](N)C(=O)O; Orn = NCCC[C@H](N)C(=O)O; Aze = O=C(O)[C@@H]1CCN1; Dab = NCC[C@H](N)C(=O)O; NH(CH2)4NH2 = NCCCCN*

Key:
Test in all cases: MIC, broth microdilution (CLSI), reference strain
Details in all cases: CAMHB
[1] = tested on: Staphylococcus aureus ATCC 13709
[2] = tested on: Acinetobacter baumannii ATCC 19606
[3] = tested on: Escherichia coli ATCC 25922
[4] = tested on: Pseudomonas aeruginosa ATCC 27853

| SMILES | Sa: MIC Staphylococcus aureus ATCC 13709 [1] | Ab: MIC Acinetobacter baumannii ATCC 19606 [2] | Ec: MIC Escherichia coli ATCC 25922 [3] | Pa: MIC Pseudomonas aeruginosa ATCC 27853 [4] |
| --- | --- | --- | --- | --- |
| CNCCCC[C@H](N)C(=O)N[C@H](C(=O)N[C@@H](C)C(=O)NCC(=O)N[C@H](CCCN)C(=O)N1CCC[C@H]1C(=O)N[C@@H](Cc1cnc[nH]1)C(=O)N[C@@H](CCCCN)C(=O)N/C(=C\CCNC(=N)N)C(=O)N[C@@H](CCCCN)C(=O)NCCCCN)[C@@H](O)CN [24.43] (H-[Lys(Me)][Dab(3S-OH)]AG[dOrn]PHK[ΔZArg]K-{NH(CH2)4NH2}) | ++ (≤8 μg/mL) | − (>32 μg/mL) | ++ (≤8 μg/mL) | + (≤32 μg/mL) |
| COc1ccc(C[C@H](NC(=O)[C@@H]2CCCN2C(=O)[C@@H](CCCN)NC(=O)CNC(=O)[C@@H](NC(=O)[C@@H](NC(=O)[C@@H](N)CCCCN)[C@@H](O)CN)[C@@H](O)CN)C(=O)N[C@@H](CCCCN)C(=O)N/C(=C\CCNC(=N)N)C(=O)O)cc1 [22.39] (H-K[Dab(3S-OH)][Dab(3S-OH)]G[dOrn]PY(Me)K[ΔZArg]-OH) | ++ (≤8 μg/mL) | − (>32 μg/mL) | + (≤32 μg/mL) | − (>32 μg/mL) |
| C[C@H](NC(=O)[C@H](CCN)NC(=O)[C@@H](N)CCCCN)C(=O)NCC(=O)N[C@H](CCCN)C(=O)N1C[C@H](N)C[C@H]1C(=O)N[C@@H](Cc1cnc[nH]1)C(=O)N[C@@H](CCCCN)C(=O)N/C(=C\CCNC(=N)N)C(=O)N[C@@H](CCCCN)C(=O)NCCCCN [14.17] (H-K[Dab]AG[dOrn][Pro(4R-NH2)]HK[ΔZArg]K-{NH(CH2)4NH2}) | ++ (≤8 μg/mL) | − (>32 μg/mL) | − (>32 μg/mL) | − (>32 μg/mL) |
| C[C@H](NC(=O)[C@@H](NC(=O)[C@@H](N)CCCCN)[C@@H](O)CN)C(=O)NCC(=O)N[C@H](CCCN)C(=O)N1CCC[C@H]1C(=O)N[C@@H](Cc1ccc(C(N)=O)cc1)C(=O)N[C@@H](CCCCN)C(=O)N/C(=C\CCNC(=N)N)C(=O)O [24.101] (H-K[Dab(3S-OH)]AG[dOrn]P[Phe(4-CONH2)]K[ΔZArg]-OH) | ++ (≤8 μg/mL) | − (>32 μg/mL) | + (≤32 μg/mL) | − (>32 μg/mL) |
| COc1cccc(C[C@H](NC(=O)[C@@H]2CCCN2C(=O)[C@@H](CCCN)NC(=O)CNC(=O)[C@H](C)NC(=O)[C@@H](NC(=O)[C@@H](N)CCCCN)[C@@H](O)CN)C(=O)N[C@@H](CCCCN)C(=O)N/C(=C\CCNC(=N)N)C(=O)O)c1 [24.92] (H-K[Dab(3S-OH)]AG[dOrn]P[Phe(3-OMe)]K[ΔZArg]-OH) | ++ (≤8 μg/mL) | − (>32 μg/mL) | + (≤32 μg/mL) | − (>32 μg/mL) |
| N=C(N)NCC/C=C(\NC(=O)[C@H](CCCCN)NC(=O)[C@H](Cc1cnc[nH]1)NC(=O)[C@@H]1CCCN1C(=O)[C@@H](CCCN)NC(=O)CNC(=O)[C@@H](NC(=O)[C@@H](NC(=O)[C@@H](N)CCCCN)[C@@H](O)CN)[C@@H](O)CN)C(=O)N[C@@H](CCCCN)C(N)=O [22.8] (H-K[Dab(3S-OH)][Dab(3S-OH)]G[dOrn]PHK[ΔZArg]K-NH2) | ++ (≤8 μg/mL) | + (≤32 μg/mL) | ++ (≤8 μg/mL) | ++ (≤8 μg/mL) |
| C[C@H](NC(=O)[C@H](CCN)NC(=O)[C@@H](N)CCCCN)C(=O)NCC(=O)N[C@H](CCCN)C(=O)N1CCC[C@H]1C(=O)N[C@@H](Cc1cnc[nH]1)C(=O)N[C@@H](CCCCN)C(=O)N/C(=C\CCNC(=N)N)C(=O)N[C@@H](CCCCN)C(=O)NCCN [14.6] (H-K[Dab]AG[dOrn]PHK[ΔZArg]K-Ethylenediamine) | ++ (≤8 μg/mL) | − (>32 μg/mL) | + (≤32 μg/mL) | − (>32 μg/mL) |
| C[C@H](NC(=O)[C@@H](NC(=O)[C@@H](N)CCCCN)[C@@H](O)CN)C(=O)NCC(=O)N[C@H](CCCN)C(=O)N1CC[C@H]1C(=O)N[C@@H](Cc1cccc(F)c1)C(=O)N[C@@H](CCCCN)C(=O)N/C(=C\CCNC(=N)N)C(=O)O [24.71] (H-K[Dab(3S-OH)]AG[dOrn][Aze][Phe(3-F)]K[ΔZArg]-OH) | + (≤32 μg/mL) | − (>32 μg/mL) | + (≤32 μg/mL) | − (>32 μg/mL) |
| C[C@H](NC(=O)[C@@H](CCCN)NC(=O)CNC(=O)[C@@H](NC(=O)[C@@H](NC(=O)[C@@H](N)CCCCN)[C@@H](O)CN)[C@@H](O)CN)C(=O)N[C@@H](Cc1cnc[nH]1)C(=O)N[C@@H](CCCCN)C(=O)N/C(=C\CCNC(=N)N)C(=O)N[C@@H](CCCCN)C(=O)NCCCCN [22.18] (H-K[Dab(3S-OH)][Dab(3S-OH)]G[dOrn]AHK[ΔZArg]K-{NH(CH2)4NH2}) | ++ (≤8 μg/mL) | − (>32 μg/mL) | + (≤32 μg/mL) | − (>32 μg/mL) |
| C[C@H](NC(=O)[C@@H](NC(=O)[C@@H](N)CCCCN)[C@@H](O)CN)C(=O)NCC(=O)N[C@H](CCCN)C(=O)N1CCC[C@H]1C(=O)N[C@@H](Cc1ccccc1C(F)(F)F)C(=O)N[C@@H](CCCCN)C(=O)N/C(=C\CCNC(=N)N)C(=O)O [24.79] (H-K[Dab(3S-OH)]AG[dOrn]P[Phe(2-CF3)]K[ΔZArg]-OH) | ++ (≤8 μg/mL) | − (>32 μg/mL) | + (≤32 μg/mL) | − (>32 μg/mL) |

Continued, values first:

| Sa: MIC Staphylococcus aureus ATCC 13709 [1] | Ab: MIC Acinetobacter baumannii ATCC 19606 [2] | Ec: MIC Escherichia coli ATCC 25922 [3] | Pa: MIC Pseudomonas aeruginosa ATCC 27853 [4] | SMILES |
| --- | --- | --- | --- | --- |
| ++ (≤8 μg/mL) | − (>32 μg/mL) | ++ (≤8 μg/mL) | − (>32 μg/mL) | N=C(N)NCC/C=C(\NC(=O)[C@H](CCCCN)NC(=O)[C@H](Cc1cccc(F)c1)NC(=O)[C@@H]1CCCN1C(=O)[C@@H](CCCN)NC(=O)CNC(=O)[C@H](CCCN)NC(=O)[C@@H](NC(=O)[C@@H](N)CCCCN)[C@@H](O)CN)C(=O)O [211.4] (H-K[Dab(3S-OH)][Orn]G[dOrn]P[Phe(3-F)]K[ΔZArg]-OH) |
| ++ (≤8 μg/mL) | − (>32 μg/mL) | + (≤32 μg/mL) | − (>32 μg/mL) | N=C(N)NCC/C=C(\NC(=O)[C@H](CCCCN)NC(=O)[C@H](Cc1cnc[nH]1)NC(=O)[C@@H]1CCCN1C(=O)[C@@H](CCCN)NC(=O)CNC(=O)[C@H](Cc1cnc[nH]1)NC(=O)[C@@H](NC(=O)[C@@H](N)CCCCN)[C@@H](O)CN)C(N)=O [214.1] (H-K[Dab(3S-OH)]HG[dOrn]PHK[ΔZArg]-NH2) |
| ++ (≤8 μg/mL) | − (>32 μg/mL) | ++ (≤8 μg/mL) | − (>32 μg/mL) | N=C(N)NCC/C=C(\NC(=O)[C@H](CCCCN)NC(=O)[C@H](CC(F)(F)F)NC(=O)[C@@H]1CCCN1C(=O)[C@@H](CCCN)NC(=O)CNC(=O)[C@H](CCCN)NC(=O)[C@@H](NC(=O)[C@@H](N)CCCCN)[C@@H](O)CN)C(=O)O [211.8] (H-K[Dab(3S-OH)][Orn]G[dOrn]P[Abu(4,4,4-F3)]K[ΔZArg]-OH) |
| + (≤32 μg/mL) | − (>32 μg/mL) | − (>32 μg/mL) | − (>32 μg/mL) | CC(C)C[C@H](NC(=O)[C@@H](NC(=O)[C@@H](N)CCCCN)[C@@H](O)CN)C(=O)NCC(=O)N[C@H](CCCN)C(=O)N1CCC[C@H]1C(=O)N[C@@H](Cc1cnc[nH]1)C(=O)N[C@@H](CCCCN)C(=O)N/C(=C\CCNC(=N)N)C(=O)N[C@@H](CCCCN)C(=O)NCCCCN [29.1] (H-K[Dab(3S-OH)]LG[dOrn]PHK[ΔZArg]K-{NH(CH2)4NH2}) |
| + (≤32 μg/mL) | − (>32 μg/mL) | − (>32 μg/mL) | − (>32 μg/mL) | C[C@H](NC(=O)[C@@H](NC(=O)[C@@H](N)CCCCN)[C@@H](O)CN)C(=O)NCC(=O)N[C@H](CCCN)C(=O)N1CCC[C@H]1C(=O)N[C@@H](CCS(C)(=O)=O)C(=O)N[C@@H](CCCCN)C(=O)N/C(=C\CCNC(=N)N)C(=O)O [24.133] (H-K[Dab(3S-OH)]AG[dOrn]P[Met(O2)]K[ΔZArg]-OH) |
| + (≤32 μg/mL) | − (>32 μg/mL) | + (≤32 μg/mL) | − (>32 μg/mL) | C[C@H](NC(=O)[C@@H](NC(=O)[C@@H](N)CCCCN)[C@@H](O)CN)C(=O)NCC(=O)N[C@H](CCCN)C(=O)N1C[C@H](F)C[C@H]1C(=O)N[C@@H](Cc1cnc[nH]1)C(=O)N[C@@H](CCCCN)C(=O)N/C(=C\CCNC(=N)N)C(=O)O [24.142] (H-K[Dab(3S-OH)]AG[dOrn][Pro(trans-4-F)]HK[ΔZArg]-OH) |
| + (≤32 μg/mL) | − (>32 μg/mL) | − (>32 μg/mL) | − (>32 μg/mL) | C[C@H](NC(=O)[C@@H](NC(=O)[C@@H](N)CCCCN)[C@@H](O)CN)C(=O)NCC(=O)N[C@H](CCCN)C(=O)N1CCC[C@H]1C(=O)N[C@@H](CCC(N)=O)C(=O)N[C@@H](CCCCN)C(=O)N/C(=C\CCNC(=N)N)C(=O)O [24.117] (H-K[Dab(3S-OH)]AG[dOrn]PQK[ΔZArg]-OH) |
| − (>32 μg/mL) | − (>32 μg/mL) | − (>32 μg/mL) | − (>32 μg/mL) | C[C@H](NC(=O)[C@@H](NC(=O)[C@@H](N)CCCCN)[C@@H](O)CN)C(=O)NCC(=O)N[C@H](CCCN)C(=O)N1CCC[C@H]1C(=O)N[C@@H](Cc1cnc[nH]1)C(=O)N[C@@H](CCCCN)C(=O)N[C@H](CCCNC(=N)N)C(=O)O [24.122] (H-K[Dab(3S-OH)]AG[dOrn]PHK[dR]-OH) |
